Laboratory results published in patent publication US20170150719A1, “FUNGICIDAL PYRAZOLES AND THEIR MIXTURES” (E I DU PONT DE NEMOURS AND COMPANY, priority 2010, published 2017).
Marks after values point to notes of the source that are not given here.

Key:
[1] = tested on: Puccinia recondita f. sp. tritici; assay: Test G: wheat leaf rust, spray after inoculation (curative) on wheat seedlings, visual disease rating; type: in vivo; conditions: for Test G rating (disease control) / Test G rating (% disease control): 100 = 100% disease control; for Test G rating (disease control): 0 = no disease control; for Test G rating (% disease control): spray after inoculation, rating without asterisk
From the text: (§1) A hyphen (-) indicates no test results.

Septoria tritici = assay: Test F: wheat leaf blotch, preventive spray on wheat seedlings, visual disease rating; type: in vivo; parameters: Test F rating (disease control), value marked *: concentration or dose not given beside the values; conditions: for Test F rating (disease control) / Test F rating (% disease control): 100 = 100% disease control; for Test F rating (disease control): 0 = no disease control relative to the controls; for Test F rating (% disease control): preventive spray, rating without asterisk
From the text: as §1

[2] = tested on: Puccinia recondita f. sp. tritici; assay: Test H: wheat leaf rust, preventive spray on wheat seedlings, visual disease rating; conditions: wheat leaf rust; for Test H rating (disease control): sprayed the day before inoculation, 0 = no disease control; for Test H rating (disease control) / Test H rating (% disease control): 100 = 100% disease control; for Test H rating (% disease control): preventive spray, rating without asterisk
Experimental: (§2) General protocol for preparing test suspensions for Tests A-I: the test compounds were first dissolved in acetone in an amount equal to 3% of the final volume and then suspended at the desired concentration (in ppm) in acetone and purified water (50/50 mix by volume) containing 250 ppm of the surfactant Trem® 014 (polyhydric alcohol esters). The resulting test suspensions were then used in Tests A-I. Each test was conducted in triplicate, and the results were averaged. Spraying a 200 ppm test suspension to the point of run-off on the test plants was the equivalent of a rate of about 800 g/ha. Unless otherwise indicated, the rating values indicate a 200 ppm test suspension was used. (An asterisk “*” next to the rating value indicates a 40 ppm test suspension was used.)
The test suspension was sprayed to the point of run-off on wheat seedlings. The following day the seedlings were inoculated with a spore suspension of Puccinia recondita f. sp. tritici (the causal agent of wheat leaf rust) and incubated in a saturated atmosphere at 20° C. for 24 h, and then moved to a growth chamber at 20° C. for 6 days, after which time visual disease ratings were made.

Alternaria solani = assay: Test B: tomato early blight, preventive spray on tomato seedlings, visual disease rating; conditions: tomato early blight; for Test B rating (disease control) / Test B rating (% disease control): 100 = 100% disease control; for Test B rating (disease control): 0 = no disease control relative to the controls; for Test B rating (% disease control): preventive spray, rating without asterisk
Botrytis cinerea = assay: Test A: tomato Botrytis, preventive spray on tomato seedlings, visual disease rating; conditions: tomato Botrytis; for Test A rating (disease control) / Test A rating (% disease control): 100 = 100% disease control; for Test A rating (disease control): 0 = no disease control relative to the controls; for Test A rating (% disease control): preventive spray, 0 = no control relative to controls, rating without asterisk
[3] = tested on: Blumeria graminis f. sp. tritici; assay: Test I: wheat powdery mildew, preventive spray on wheat seedlings, visual disease rating; conditions: wheat powdery mildew; for Test I rating (disease control) / Test I rating (% disease control): 100 = 100% disease control; for Test I rating (disease control): 0 = no disease control relative to the controls; for Test I rating (% disease control): preventive spray, rating without asterisk
Experimental: as §2
The test suspension was sprayed to the point of run-off on wheat seedlings. The following day the seedlings were inoculated with a spore dust of Blumeria graminis f. sp. tritici (also known as Erysiphe graminis f. sp. tritici, the causal agent of wheat powdery mildew) and incubated in a growth chamber at 20° C. for 8 days, after which time visual disease ratings were made.

Septoria nodorum = assay: Test E: Septoria glume blotch, preventive spray on wheat seedlings, visual disease rating; conditions: for Test E rating (disease control) / Test E rating (% disease control): 100 = 100% disease control; for Test E rating (disease control): 0 = no disease control relative to the controls; for Test E rating (% disease control): Septoria glume blotch on wheat, preventive spray, rating without asterisk
[4] = rating marked with asterisk (*), other test condition, not explained in the text shown

| Compound | Test G rating (disease control) ([1]; sprayed after inoculation) [%] | Test F rating (disease control) (Septoria tritici) [%] | Test H rating (disease control) [2] [%] | Test B rating (disease control) (Alternaria solani) [%] | Test A rating (disease control) (Botrytis cinerea) [%] | Test I rating (disease control) [3] [%] | Test E rating (disease control) (Septoria nodorum; Septoria glume blotch) [%] | other results |
| --- | --- | --- | --- | --- | --- | --- | --- | --- |
| Cc1nn(C)c(Nc2ccc(F)cc2Br)c1-c1c(Cl)cccc1Cl [compound 114] | 0 | 100 | 91 | 0 | 99 | 100 | 0 |  |
| Cc1nn(C)c(Nc2ccc(C#N)cc2F)c1-c1ccc(F)cc1F [compound 68] | 0 | 100 | 80 | 51 | 99 | 100 | 0 |  |
| Cc1nn(C)c(Oc2c(F)cc(C#N)cc2F)c1-c1c(F)cc(F)cc1F [Compound 8, 4-[[1,3-dimethyl-4-(2,4,6-trifluorophenyl)-1H-pyrazol-5-yl]oxy]-3,5-difluorobenzonitrile] |  |  |  |  |  |  |  | Test G rating (disease control), value marked * ([1]; sprayed after inoculation, rating marked with asterisk (*), not explained in the text shown): 15* %; Test F rating (disease control), value marked * (Septoria tritici; [4]): 47* %; Test H rating (disease control), value marked * ([2]; preventive, rating marked with asterisk (*), not explained in the text shown): 79* %; Test B rating (disease control), value marked * (Alternaria solani; [4]): 98* %; Test A rating (disease control), value marked * (Botrytis cinerea; [4]): 99* %; Test I rating (disease control), value marked * ([3]; rating marked with asterisk (*), not explained in the text shown): 60* %; Test E rating (disease control), value marked * (Septoria nodorum; Septoria glume blotch, rating marked with asterisk (*), other test condition, not explained in the text shown): 0* % |
| Cc1nn(C)c(Nc2c(F)cc(F)cc2I)c1-c1ccc(F)cc1Br [compound 215] |  |  |  |  |  |  |  | Test G rating (% disease control) [1]: 100%; Test F rating (% disease control) (Septoria tritici): 100%; Test H rating (% disease control) [2]: 100%; Test B rating (% disease control) (Alternaria solani): 100%; Test A rating (% disease control) (Botrytis cinerea): 100%; Test I rating (% disease control) [3]: 100%; Test E rating (% disease control) (Septoria nodorum): 99% |
| Cc1nn(C)c(Nc2c(F)cc(I)cc2F)c1-c1ccc(F)cc1Cl [compound 217] |  |  |  |  |  |  |  | Test G rating (% disease control) [1]: 41%; Test F rating (% disease control) (Septoria tritici): 100%; Test H rating (% disease control) [2]: 99%; Test B rating (% disease control) (Alternaria solani): 58%; Test A rating (% disease control) (Botrytis cinerea): 100%; Test I rating (% disease control) [3]: 99%; Test E rating (% disease control) (Septoria nodorum): 86% |
| COc1cc(F)c(-c2c(C)nn(C)c2Oc2c(F)cc(C#N)cc2F)c(F)c1 [compound 38] | 0 | 99 | 96 | 94 | 99 | 97 | 87 |  |
| COc1ccc(-c2c(C)nn(C)c2Nc2ccc(F)cc2F)c(Cl)c1 [compound 42] | 8 | 99 | 100 | 99 | 98 | 100 | 0 |  |
| Cc1nn(C)c(Nc2c(F)cc(F)cc2F)c1-c1c(F)cccc1F [compound 89] | 9 | 100 | 99 | 99 | 100 | 100 | 82 |  |
| Cc1nn(C)c(Nc2c(Cl)cc(F)cc2Cl)c1-c1ccc(Cl)cc1F [compound 227] |  |  |  |  |  |  |  | Test G rating (% disease control) [1]: 0%; Test F rating (% disease control) (Septoria tritici): 100%; Test H rating (% disease control) [2]: 95%; Test B rating (% disease control) (Alternaria solani): 0%; Test A rating (% disease control) (Botrytis cinerea): 0%; Test I rating (% disease control) [3]: 96%; Test E rating (% disease control) (Septoria nodorum): 0% |
| COc1ccc(Nc2c(-c3ccc(F)cc3F)c(C)nn2C)c(Cl)c1 [compound 66] | 0 | 100 | 91 | 37 | 99 | 100 | 0 |  |
| Cc1nn(C)c(Nc2c(Cl)cc(Br)cc2Cl)c1-c1ccc(F)cc1Br [compound 168] | 97 | 100 | 91 | 0 | 0 | 48 | 0 |  |
| Cc1nn(C)c(Nc2ccc(C#N)cc2Cl)c1-c1ccc(F)cc1Cl [compound 44] | 8 | 99 | 98 | 0 | 99 | 94 | 0 |  |
| Cc1nn(C)c(Nc2ccc(Br)cc2Cl)c1-c1ccc(F)cc1Br [compound 173] | 0 | 100 | 99 | 0 | 100 | 99 | 40 |  |
| Cc1nn(C)c(Oc2c(F)cc(C#N)cc2F)c1-c1ccccc1F [compound 91] | 0 | 100 | 99 | 99 | 99 | 99 | 94 |  |
| Cc1nn(C)c(Nc2c(Cl)cc(F)cc2Cl)c1-c1ccc(Cl)cc1Cl [compound 132] | 0 | 99 | 96 | 0 | 93 | 43 | 0 |  |
| Cc1nn(C)c(Nc2ccc(Br)cc2F)c1-c1ccc(F)cc1F [compound 154] | 68 | 100 | 98 | 9 | 100 | 99 | 0 |  |
| Cc1nn(C)c(Nc2c(F)cc(F)cc2Br)c1-c1ccc(F)cc1I [compound 226] |  |  |  |  |  |  |  | Test G rating (% disease control) [1]: 0%; Test F rating (% disease control) (Septoria tritici): 100%; Test H rating (% disease control) [2]: 99%; Test B rating (% disease control) (Alternaria solani): 97%; Test A rating (% disease control) (Botrytis cinerea): 97%; Test I rating (% disease control) [3]: 100%; Test E rating (% disease control) (Septoria nodorum): 60% |
| Cc1nn(C)c(Nc2c(F)cc(F)cc2F)c1-c1ccccc1Br [compound 70] | 0 | 100 | 99 | 26 | 99 | 100 | 73 |  |
